Reference: publication PMC6120666 (The EMBO Journal, 2018)

Experiments:
[1] = system: RIPK2 ubiquitination in U2OS/NOD2 and THP-1 cells; assay: Purification of Ub-conjugates (TUBE pulldown), RIPK2 ubiquitination; assay type: cell-based, human; settings: U2OS/NOD2 or THP-1 cells, L18-MDP 200 ng/ml, 1 h
Description: For co‐immunoprecipitation of HA‐XIAP with RIPK2, transfected and treated cells were lysed in TBS buffer containing 0.5% NP‐40, cOmplete and PhosSTOP inhibitors (Roche) and the lysate was cleared by centrifugation. The lysates were incubated with anti‐HA‐agarose overnight, washed 3× with lysis buffer, and analyzed by immunoblotting. For GST pulldown experiments, U2OS/NOD2 cells were lysed in TBS lysis buffer containing 0.5% NP‐40, cOmplete and PhosSTOP inhibitors (Roche). Cleared lysates were pretreated with kinase inhibitors or DMSO and incubated with GST‐XIAP‐BIR2 bound to Glutathione Sepharose at 4°C overnight. Bound material was washed 3× with lysis buffer or PBS, eluted with 15 mM Glutathione in PBS, and analyzed by immunoblotting. […] The bound material was eluted and analyzed as described above. […]
PBS, eluted with 15 mM Glutathione in PBS and analyzed by immunoblotting. […]

[2] = system: U2OS/NOD2 cells; assay: Intracellular flow cytometry of CXCL8 after L18-MDP; assay type: cell-based, human; settings: L18-MDP 200 ng/ml, 4 h; for inhibition of NOD2 signaling (CXCL8) in cells expressing RIPK2 T95W: U2OS/NOD2 RIPK2 KO cells reconstituted with T95W gatekeeper mutant; for L18-MDP-induced CXCL8 production: U2OS/NOD2 cells
Description: Purified material and lysates were analyzed by immunoblotting. […] Numbering below schematic refers to amino acid residues in human RIPK2 and indicate domain boundaries. […] Data information: Data in (A, B, D, H) represent the mean ± SEM of 2–4 independent experiments, each performed in duplicate. […] Two‐way ANOVA was used to determine statistical significance. See also Fig EV1.Source data are available online for this figure.
Dark gray represents areas occupied by RIPK2; white areas indicate empty spaces in CSLP binding pocket. […] Dotted black box indicates region shown for models with CSLP37 and CSLP43. • Molecular docking model of RIPK2 kinase domain in complex with CSLP43 (green) based on RIPK2/CSLP18 structure from (D). […] Two‐way ANOVA was used to determine statistical significance. See also Fig EV2.
GST-BIR2-XIAP as indicated. Intensity quantification of SPOTs was performed using ImageJ software
Dual luciferase reporter assay
Intracellular flow cytometry of CXCL8
for cell death) or vehicle for 24h. Viability was determined using the CellTiter-Glo® luminescent cell
together with Transfection Carrier DNA (Promega).
After addition of Nano-Glo

[3] = biological target: T1, NanoLuc-RIPK2 (Homo sapiens, UniProt O43353); assay: nanoBRET cellular RIPK2 target engagement assay in HEKBlue cells; settings: average ± SD of at least three titrations, read-out: IC50, Cellular activity, nanoBRET RIPK2 binding
T1 construct: host or cells: hNOD2-HEKBlue cells
T1 sequence (O43353 whole entry): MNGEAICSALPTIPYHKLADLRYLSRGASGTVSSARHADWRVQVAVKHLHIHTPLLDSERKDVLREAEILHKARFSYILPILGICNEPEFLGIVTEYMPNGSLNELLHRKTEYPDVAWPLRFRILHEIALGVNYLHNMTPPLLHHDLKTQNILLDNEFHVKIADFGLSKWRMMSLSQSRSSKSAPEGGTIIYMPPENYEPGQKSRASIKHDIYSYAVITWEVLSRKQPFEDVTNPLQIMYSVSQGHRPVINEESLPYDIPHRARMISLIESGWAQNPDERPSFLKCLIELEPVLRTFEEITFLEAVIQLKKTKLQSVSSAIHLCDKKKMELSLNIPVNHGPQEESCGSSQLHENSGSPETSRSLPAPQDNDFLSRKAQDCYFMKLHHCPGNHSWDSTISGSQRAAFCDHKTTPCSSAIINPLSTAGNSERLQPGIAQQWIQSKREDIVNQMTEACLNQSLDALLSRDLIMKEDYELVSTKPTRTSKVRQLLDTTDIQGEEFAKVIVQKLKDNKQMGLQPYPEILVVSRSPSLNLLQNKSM

[4] = system: NOD2/HEKBlue cells; assay: hNOD2-HEKBlue L18-MDP-induced NF-κB reporter assay; assay type: cell-based, human; settings: for IC50: Homo sapiens, HEK-Blue, L18-MDP-induced NF-κB reporter, average ± SD of at least three titrations
Description: For HEKBlue assay, cells were seeded into clear 96‐well plates at 7.5 × 10^3 cells/well and allowed to attach for 48 h. On the day of the experiment, media was changed to 100 μl of HEKBlue detection media (InvivoGen). Inhibitors were diluted and added in 0.5 μl DMSO 15 min prior to the addition of 1 ng/ml L18‐MDP (InvivoGen). After 8–9 h, absorbance at 620 nm was measured using Victor3V plate reader (Perkin Elmer, Waltham, MA). Values of media‐only wells were subtracted and %inhibition for each compound concentration relative to the DMSO/L18‐MDP‐treated controls was calculated. Inhibition values ± SD were fitted by non‐linear regression using Prism software (GraphPad Software, La Jolla, CA) to calculate IC50 values. For THP1Blue assay, 1 × 10^5 cells were seeded in 200 μl of RPMI media in 96‐well plates and treated with inhibitors in 0.5 μl DMSO for 15 min prior to the addition of 10 μg/ml MDP, 10 ng/ml Pam3CSK4, 10 ng/ml E. coli LPS, or 1 × 10^7 cells/ml heat‐killed L. monocytogenes (InvivoGen) for 24 h. After induction, 20 μl of media was mixed with 180 μl of QUANTI‐Blue reagent (InvivoGen) and incubated at 37°C for 3–4 h, followed by absorbance measurement at 620 nm. IC50 values were calculated as described for HEKBlue assay.
Cayman Chemical Company, Ann Arbor, MI), GSK583 (#HY-100339, MedChem Express, South Brunswick, NJ), WEHI-345 (MedKoo Biosciences, Morrisville, NC), Compound A (CpA, a kind gift from TetraLogic Pharmaceuticals, Malvern, PA). Generation of the CSLP compound series is described in Suebsuwong et al. 2018 (manuscript in preparation). hNOD2-HEKBlue and THP1Blue assays
For HEKBlue assay, cells were seeded into clear 96 well plates at 7.5x10^3 cells/well and allowed to attach for 48 h. On the day of the experiment, media was changed to 100 μl of HEKBlue detection media (InvivoGen). Inhibitors were diluted and added in 0.5 μl DMSO 15 min prior to the addition of 1 ng/ml L18-MDP (InvivoGen). After 8-9 h, absorbance at 620 nm was measured using Victor3V plate reader (Perkin Elmer, Waltham, MA). Values of media-only wells were subtracted and %inhibition for each compound concentration relative to the DMSO/L18-MDP-treated controls were calculated.
Inhibition values + StDev were fitted by non-linear regression using Prism software (GraphPad Software, La Jolla, CA) to calculate IC50 values. For THP1Blue assay, 1x10^5 cells were seeded in 200 μl of RPMI media in 96 well plates and treated with inhibitors in 0.5 μl DMSO 15 min prior to the addition of 10 µg/ml MDP, 10 ng/ml Pam3CSK4, 10 ng/ml E. coli LPS or 1x10^7 cells/ml heat-killed L. monocytogenes (InvivoGen) for 24 h. After induction, 20 μl of media was mixed with 180 μl of QUANTI-Blue reagent (InvivoGen) and incubated at 37 °C for 3-4 h, followed by absorbance measurement at 620 nm. IC50 values were calculated as described for HEKBlue assay. […]

SMILES | IC50 [3] | RIPK2 ubiquitination after L18-MDP [1] | inhibition of NOD2 signaling (CXCL8) in cells expressing RIPK2 T95W [2] | IC50 [4] | L18-MDP-induced CXCL8 production [2] | fold lower cellular potency than against RIPK2 kinase in vitro ([4]; Table 1, Fig 4A)
COc1cc(-c2cc(-c3ccc(N4CCNCC4)cc3)cnc2N)cc(F)c1OC [CSLP55] | 195 ± 47.1 nM | little or no effect | not negatively impacted | 595 ± 69.6 nM | – | –
CCCS(=O)(=O)Nc1cc(-c2cc(-c3ccc(N4CCNCC4)cc3)cnc2N)cc(F)c1OC [CSLP37] | 36.3 ± 20.2 nM | inhibited RIPK2 ubiquitination | no longer observed | 26.3 ± 3.7 nM | potent suppression | –
CCCS(=O)(=O)Nc1cc(-c2cc(-c3ccc(N4CCNCC4)cc3)cnc2N)cc(OC)c1OC [CSLP43] | 10.1 ± 3.8 nM | inhibited RIPK2 ubiquitination | no longer observed | 1.3 ± 0.4 nM | potent suppression | –

More lines, main results first:

IC50 [3] | SMILES | RIPK2 ubiquitination after L18-MDP [1] | inhibition of NOD2 signaling (CXCL8) in cells expressing RIPK2 T95W [2] | IC50 [4] | L18-MDP-induced CXCL8 production [2] | fold lower cellular potency than against RIPK2 kinase in vitro ([4]; Table 1, Fig 4A)
1230 nM | CCCS(=O)(=O)Nc1cc(-c2cc(-c3ccc(N4CCNCC4)cc3)cnc2N)ccc1O [CSLP48] | little or no effect | not negatively impacted | > 5000 nM | – | –
521 ± 172 nM | Cc1ccc(-c2nn(C(C)(C)CNC(=O)c3ccncc3)c3ncnc(N)c23)cc1 [WEHI‐345, reference compound] | – | – | 3370 nM | – | > 10 fold
